Laboratory results published in BindingDB's records for doi:10.1021/jm960331f (Oregon State University, 1996).

Assay: determined in L-pipecolate oxidase from Rehsus monkey

SMILES: O=C(O)[C@@H]1CCCCN1 [(S)-pipecolate]
- Ki: 130 µM
